Data: US10550100B2, “5-[3-[piperzin-1-yl]-3-oxo-propyl]-imidazolidine-2,4-dione derivatives as ADAMTS 4 and 5 inhibitors for treating E.G. osteoarthritis” (GALAPAGOS NV, priority 2016, dated 2020)
Read-outs that look alike come from different tables or passages of the source.

Tests used:
Assay type in all cases: biochemical
human ADAMTS6 = human ADAMTS6 (Homo sapiens (Human), UniProt Q9UKP5); test: hADAMTS-6 520 MMP FRET substrate XII cleavage assay; conditions: 37° C. for 2 h, read-out: hADAMTS-6 potency IC50
human ADAMTS6, sequence (Q9UKP5 other isoform, or with tags, fused parts or gaps): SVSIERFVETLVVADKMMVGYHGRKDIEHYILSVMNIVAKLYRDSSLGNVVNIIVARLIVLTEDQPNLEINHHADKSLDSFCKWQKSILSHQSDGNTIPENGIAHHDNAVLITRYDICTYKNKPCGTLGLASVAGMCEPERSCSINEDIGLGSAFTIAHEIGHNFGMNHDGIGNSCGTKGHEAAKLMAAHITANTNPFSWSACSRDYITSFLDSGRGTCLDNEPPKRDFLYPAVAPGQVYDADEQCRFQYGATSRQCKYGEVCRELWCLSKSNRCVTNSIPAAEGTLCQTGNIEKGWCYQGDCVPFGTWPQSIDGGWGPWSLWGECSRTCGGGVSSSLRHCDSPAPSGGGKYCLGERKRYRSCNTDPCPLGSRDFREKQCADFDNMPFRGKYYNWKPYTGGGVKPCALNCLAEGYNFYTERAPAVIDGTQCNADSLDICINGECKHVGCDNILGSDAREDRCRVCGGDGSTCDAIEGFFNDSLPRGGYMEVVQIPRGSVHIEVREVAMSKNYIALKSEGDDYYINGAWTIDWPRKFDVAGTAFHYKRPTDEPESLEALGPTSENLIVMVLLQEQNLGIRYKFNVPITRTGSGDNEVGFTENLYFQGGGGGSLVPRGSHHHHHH
How it was run: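 FRET cleavage of 520 MMP Substrate XII (Arg-Pro-Lys-Pro-Tyr-Ala-Nva-Trp-Met-Lys) by 0.73 nM enzyme in 25 mM Tris pH8.0, 0.05% CHAPS, 2.5 mM CaCl2. Compound dilution series from 20 μM top, 1/5 steps; substrate added from 1 μM stock, 2 h at 37° C. Fluorescence read at exc485/em530 for IC50.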

human ADAMTS-5 [1] = target: T1, human ADAMTS-5 (Homo sapiens (Human), UniProt Q9UNA0); test: hADAMTS-5 TBIS-1 cleavage assay, Protocol 2; conditions: Protocol 2, TBIS-1 substrate, 45 min at 37° C.; read-out: hADAMTS-5 potency IC50
T1 sequence (Q9UNA0 262-930): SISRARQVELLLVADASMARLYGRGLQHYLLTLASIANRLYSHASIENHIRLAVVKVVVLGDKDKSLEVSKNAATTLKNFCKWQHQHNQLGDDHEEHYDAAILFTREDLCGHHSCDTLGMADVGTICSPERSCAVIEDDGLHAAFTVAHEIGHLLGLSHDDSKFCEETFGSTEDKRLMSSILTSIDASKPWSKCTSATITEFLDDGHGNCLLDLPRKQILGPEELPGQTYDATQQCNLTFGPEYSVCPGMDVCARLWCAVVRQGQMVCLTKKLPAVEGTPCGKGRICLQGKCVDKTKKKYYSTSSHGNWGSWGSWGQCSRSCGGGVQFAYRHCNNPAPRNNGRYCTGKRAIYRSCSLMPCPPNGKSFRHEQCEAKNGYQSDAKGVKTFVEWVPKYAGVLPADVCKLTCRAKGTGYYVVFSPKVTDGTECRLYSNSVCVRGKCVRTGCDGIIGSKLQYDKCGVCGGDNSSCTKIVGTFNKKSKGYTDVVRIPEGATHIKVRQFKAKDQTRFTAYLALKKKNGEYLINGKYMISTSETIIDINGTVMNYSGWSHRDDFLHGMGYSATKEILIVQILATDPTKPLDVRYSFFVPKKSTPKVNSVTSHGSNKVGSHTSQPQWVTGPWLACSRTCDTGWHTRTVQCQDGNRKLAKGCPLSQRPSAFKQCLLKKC
Method: The basis for the assay is the cleavage of the substrate TBIS-1 (5 FAM-[…] (5TAMRA)K-NH2) (SEQ ID NO: 2) by human ADAMTS-5.
(§1) The reaction is initiated by adding to the assay plate TBIS-1 (10 μL, 4.5 μM, Anaspec) in the same buffer.
Finally, the fluorescence is read on the Envision (Perkin Elmer) after an incubation of 45 min at 37° C. (Excitation 485 nm, emission 530).

rnADAMTS-5 (1-564-6H) = rnADAMTS-5 (1-564-6H) (Rattus norvegicus (Rat), UniProt Q6TY19); test: Rat ADAMTS-5 TBIS-1 substrate cleavage assay; conditions: rnADAMTS-5, TBIS-1 substrate, 120 min at 37° C.; read-out: Rat ADAMTS-5 potency IC50
rnADAMTS-5 (1-564-6H), sequence (Q6TY19 entry or part of it): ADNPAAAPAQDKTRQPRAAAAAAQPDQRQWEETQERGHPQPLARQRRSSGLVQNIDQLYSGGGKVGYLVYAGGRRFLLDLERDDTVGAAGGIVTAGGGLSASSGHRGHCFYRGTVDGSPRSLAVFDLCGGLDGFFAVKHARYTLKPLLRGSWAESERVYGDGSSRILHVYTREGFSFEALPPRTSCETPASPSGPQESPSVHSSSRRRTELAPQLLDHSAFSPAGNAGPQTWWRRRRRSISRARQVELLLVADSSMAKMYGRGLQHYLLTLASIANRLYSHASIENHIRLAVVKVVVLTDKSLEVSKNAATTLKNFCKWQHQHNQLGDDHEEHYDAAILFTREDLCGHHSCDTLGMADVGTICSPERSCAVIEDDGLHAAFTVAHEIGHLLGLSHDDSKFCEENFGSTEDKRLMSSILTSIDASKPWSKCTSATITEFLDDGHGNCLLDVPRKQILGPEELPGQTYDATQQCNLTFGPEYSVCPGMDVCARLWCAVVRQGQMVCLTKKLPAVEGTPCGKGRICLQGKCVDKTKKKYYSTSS
Method: The basis for the assay is the cleavage of the substrate TBIS-1 (5 FAM-[…] (5TAMRA)K-NH2) (SEQ ID NO: 2) by rnADAMTS-5 (1-564-6H).
as §1
Finally, the fluorescence is read on the Envision (Perkin Elmer) after an incubation of 120 min at 37° C. (Excitation 485 nm, emission 535).

human ADAMTS-5 [2] = target: T1, human ADAMTS-5; test: hADAMTS-5 TBIS-1 cleavage assay, Protocol 3; conditions: Protocol 3, TBIS-1 substrate, 90 min at 37° C.; read-out: hADAMTS-5 potency IC50
Method: as §1
Finally, the fluorescence is read on the Envision (Perkin Elmer) after an incubation of 90 min at 37° C. (Excitation 485 nm, emission 530).

human MMP13 = human MMP13 (Homo sapiens (Human), UniProt P45452); test: hMMP13 390 MMP FRET Substrate I cleavage assay, Protocol 1; conditions: Protocol 1, 390 MMP FRET Substrate I; read-out: hMMP-13 potency IC50
Method: The basis for the assay is the cleavage of the substrate 390 MMP FRET Substrate I (Anaspec Cat# AS-27076) by human MMP13 (Chemicon, Cat#CC068).
Human MMP13 is preactivated by incubated the enzyme in the same buffer complemented with 1 mM freshly prepared p-Aminophenylmercuric acetate (AMPA) for 1 h at 37° C.
The reaction is initiated by adding to the assay plate 390 MMP FRET Substrate I (10 μL, 2.5 μM) in the same buffer.
Finally, the fluorescence is read on the Envision (Perkin Elmer) after an incubation of 45 min at room temperature (Excitation 485 nm, Emission 530).

human TACE = human TACE (Homo sapiens (Human), UniProt P78536); test: hTACE 5FAM-[…]-5TAMRA cleavage assay; conditions: 75 min at room temperature, read-out: hTACE potency IC50
human TACE, sequence (P78536 215-671): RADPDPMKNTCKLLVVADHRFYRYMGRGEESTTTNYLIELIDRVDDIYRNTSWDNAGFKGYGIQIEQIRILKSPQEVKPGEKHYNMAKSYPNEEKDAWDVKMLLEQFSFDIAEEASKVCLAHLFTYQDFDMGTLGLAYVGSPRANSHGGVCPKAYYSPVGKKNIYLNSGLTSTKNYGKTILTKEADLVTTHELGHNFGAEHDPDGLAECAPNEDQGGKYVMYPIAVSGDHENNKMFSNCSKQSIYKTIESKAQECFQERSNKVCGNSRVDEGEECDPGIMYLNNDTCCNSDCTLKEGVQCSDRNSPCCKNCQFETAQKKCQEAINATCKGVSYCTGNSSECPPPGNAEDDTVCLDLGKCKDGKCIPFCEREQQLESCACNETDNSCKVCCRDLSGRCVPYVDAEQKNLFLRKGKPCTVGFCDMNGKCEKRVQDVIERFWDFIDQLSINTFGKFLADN
Method: Finally, the fluorescence is read on the Envision (Perkin Elmer) after an incubation of 75 min at room temperature (Excitation 485 nm, Emission 530).

IC50 (human ADAMTS6)	IC50 (human ADAMTS-5 [1])	IC50 (rnADAMTS-5 (1-564-6H))	IC50 (human ADAMTS-5 [2])	IC50 (human MMP13)	IC50 (human TACE; 5FAM-LAQAVRSSSRK-5TAMRA)	IC50 (human TACE; 5FAM-[…]-5TAMRA)	Structure (SMILES)
> 100 nM	> 100 nM						Cc1ccc(C2CCN(C(=O)CCC3(C)NC(=O)NC3=O)CC2)cc1 (stereo not drawn) [Cpd 8, 5-methyl-5-(3-oxo-3-(4-p-tolylpiperidin-1-yl)propyl) imidazolidine-2,4-dione]
> 100 nM	> 100 nM						CC1(CCC(=O)N2CCC(c3cccc(F)c3)CC2)NC(=O)NC1=O (stereo not drawn) [Cpd 13, 5-(3-(4-(3-fluorophenyl)piperidin-1-yl)-3-oxopropyl)-5-methyl-imidazolidine-2,4-dione]
> 100 nM	> 100 nM						O=C1NC(=O)[C@H](CCC(=O)N2CCC(c3ccccc3)CC2)N1 [Cpd 1, (S)-5-[(3-oxo-3-((4S)-phenylpiperidin-1-yl)propyl]) imidazolidine-2,4-dione]
25 to 50 nM		50 to 100 nM	50 to 100 nM	> 100 nM	> 100 nM		C[C@@H](C[C@@]1(C)NC(=O)NC1=O)C(=O)N1CCC(c2ccc(F)cc2)CC1 (stereo in doubt) [Cpd 26, 5-(3-(4-(4-fluorophenyl)piperidin-1-yl)-2-methyl-3-oxopropyl)-5-methyl-imidazolidine-2,4-dione]
> 100 nM	> 100 nM						Cc1cccc(C2CCN(C(=O)CCC3(C)NC(=O)NC3=O)CC2)c1 (stereo not drawn) [Cpd 15, 5-methyl-5-(3-oxo-3-(4-m-tolylpiperidin-1-yl)propyl) imidazolidine-2,4-dione]
50 to 100 nM		50 to 100 nM	50 to 100 nM	> 100 nM	> 100 nM		O=C1NC(=O)C(CCC(=O)N2CCC(c3cc(Cl)cc(Cl)c3)CC2)(C2CC2)N1 (stereo not drawn) [Cpd 17, 5-cyclopropyl-5-(3-(4-(3,5-dichlorophenyl)piperidin-1-yl)-3-oxopropyl) imidazolidine-2,4-dione]
0.001 to 25 nM		25 to 50 nM	25 to 50 nM	> 100 nM		50 to 100 nM	C[C@@H](C[C@@]1(C)NC(=O)NC1=O)C(=O)N1CCC(c2cc(Cl)cc(Cl)c2)CC1 (stereo in doubt) [Cpd 25, 5-(3-(4-(3,5-dichlorophenyl)piperidin-1-yl)-2-methyl-3-oxopropyl)-5-methyl-imidazolidine-2,4-dione]
> 100 nM	> 100 nM						CC1(CCC(=O)N2CCC(c3ccccc3F)CC2)NC(=O)NC1=O (stereo not drawn) [Cpd 14, 5-(3-(4-(2-fluorophenyl)piperidin-1-yl)-3-oxopropyl)-5-methyl-imidazolidine-2,4-dione]
0.001 to 25 nM		50 to 100 nM	50 to 100 nM	> 100 nM	> 100 nM		C[C@@H](C[C@@]1(C)NC(=O)NC1=O)C(=O)N1CCC(c2ccc(Cl)cc2)CC1 (stereo in doubt) [Cpd 24, 5-(3-(4-(4-chlorophenyl)piperidin-1-yl)-2-methyl-3-oxopropyl)-5-methyl imidazolidine-2,4-dione]
0.001 to 25 nM		> 100 nM	> 100 nM	> 100 nM	> 100 nM		COc1cc(C2CCN(C(=O)CC[C@H]3NC(=O)NC3=O)CC2)cc(OC)c1Cl [Cpd 21, (R)-5-(3-(4-(4-chloro-3,5-dimethoxy-phenyl)piperidin-1-yl)-3-oxopropyl) imidazolidine-2,4-dione]
50 to 100 nM		50 to 100 nM	50 to 100 nM	> 100 nM	> 100 nM		C[C@@H](C[C@@]1(C)NC(=O)NC1=O)C(=O)N1CCC(c2ccccc2)CC1 [Cpd 23, (R)-5-methyl-5-((S)-2-methyl-3-oxo-3-(4-phenylpiperidin-1-yl)propyl) imidazolidine-2,4-dione]
> 100 nM		25 to 50 nM	25 to 50 nM	> 100 nM	> 100 nM		O=C1NC(=O)C(CCC(=O)N2CCC(c3cccc(F)c3)CC2)(C2CC2)N1 (stereo not drawn) [Cpd 19, 5-cyclopropyl-5-(3-(4-(3-fluorophenyl)piperidin-1-yl)-3-oxopropyl) imidazolidine-2,4-dione]
